The text below walks through data of patent publication US4196288A, “Ergoline derivatives and a process for their preparation” (Societa Farmaceutici Italia S.p.A., priority 1976, dated 1980).

One data set relates to nidation. In words: Nidation inhibition test in rats (anti-prolactin activity; absence of implantation sites). It counts as in vivo, rat (Sprague-Dowley). To be noted: Rattus norvegicus. An excerpt: Prolactin is considered to be the only hypophysial hormone involved in the maintenance of the first part of pregnancy in rats.
For the assessment of the anti-prolactin activity, the nidation inhibition test (M.C. Shelesnyak, Amer. J. Physiol., 180, 47, 1955) in rats was employed. For the ergoline derivatives this test is considered to be correlated with prolactin-inhibiting ability (K. Rezabek et al., J. Pharm. Sci., 64, 1045, 1976).
Adult female rats, of the Sprague-Dowley strain, in proestrus were mated with fertile males and their vaginal smears were examined the next morning. The presence of spermatozoa was considered evidence of impregnation and onset of pregnancy (day 1).
The compounds to be tested were administered orally or subcutaneously to groups of from six to eight rats on day 3. On day 14, the animals were sacrificed and the uterus was examined for the presence of implantation sites. The absence of implantation sites was taken as the criterion of anti-prolactin activity.
Several doses were tested for the ED50 evaluation.
As the reference standard Bromocriptine was used, this being well known both for its anti-nidation (E. Fluckiger and H. R. Wagner, Experientia, 24, 1130, 1968) and its anti-prolactin activity (C. L. Brooks and C. W. Welsch, Proc. Soc. Exp. Bio. Med., 146, 863, 1974).

The nature of data set [1]: Emetic activity in dogs (intravenous). To be noted: dog, in vivo, male beagle dogs, i.v., observed for 1 hour after treatment, read-out: ≅ED50, emetic activity in dogs. An excerpt: The emetic activity of some of the compounds was investigated by intravenous administration to male beagle dogs weighing 15-20 kg. […] Five to six animals per dose were employed for the ED50 evaluation.

[2] abbreviates: sc, rats, s.c., dosed on day 3, uterus examined on day 14, read-out: ≅ED50, nidation inhibition in rats (subcutaneous treatment).
Setting [3] is: rats, os (oral), dosed on day 3, uterus examined on day 14, read-out: ≅ED50, nidation inhibition in rats (oral treatment).

Where two headings read alike, the source gives them in different places.

Consider `CC(C)C[C@H]1C(=O)N2CCC[C@H]2[C@]2(O)O[C@](NC(=O)[C@@H]3C=C4c5cccc6[nH]c(Br)c(c56)C[C@H]4N(C)C3)(C(C)C)C(=O)N12` [Bromocriptine, reference compound], for which the ED50 in the data set with nidation (po, read-out: ≅ED50, nidation inhibition in rats (oral treatment)) is roughly 8 mg/kg; in the data set on nidation (sc, read-out: ≅ED50, nidation inhibition in rats (subcutaneous treatment)), roughly 1 mg/kg. Also, in data set [1], the TD50 at 1 h was roughly 0.007 mg/kg.
Regarding `CN1CC(C(=O)CN2CCCCC2)C[C@@H]2c3cccc4[nH]cc(c34)C[C@H]21` (stereo partly shown) [Compound 611, 6-Methyl-8-piperidinoacetylergoline], the median effective dose (ED50) in the data set on nidation (setting [2]) is roughly 1 mg/kg; in the data set with nidation (setting [3]) it was roughly 0.5 mg/kg.
Regarding `CN1CC(C(=O)COC(=O)c2cncc(Br)c2)C[C@@H]2c3cccc4[nH]cc(c34)C[C@H]21` (stereo partly shown) [Compound 613, 6-Methyl-8-(5'-bromonicotinoyloxyacetyl)ergoline], the ED50 in the data set with nidation (setting [2]) and with nidation (setting [3]) was roughly 0.5 mg/kg each time. The TD50 at 1 h in data set [1] is roughly 0.045 mg/kg.
With `CN1CC(C(=O)CO)C[C@@H]2c3cccc4[nH]cc(c34)C[C@H]21` (stereo partly shown) [Compound 615, 6-Methyl-8-hydroxyacetylergoline], the ED50 in the data set with nidation (setting [2]) and in the data set on nidation (setting [3]) was roughly 0.5 mg/kg throughout. For the same compound, the TD50 at 1 h in data set [1] was roughly 0.025 mg/kg.
Take `CN1CC(C(=O)COC(=O)c2ccncc2)C[C@@H]2c3cccc4[nH]cc(c34)C[C@H]21` (stereo partly shown) [Compound 991, 8-Isonicotinoyloxyacetyl-6-methylergoline]: the ED50 in the data set with nidation (setting [2]) and with nidation (setting [3]) was roughly 2 mg/kg each time.
`CCCCCC(=O)OCC(=O)C1C[C@@H]2c3cccc4[nH]cc(c34)C[C@H]2N(C)C1` (stereo partly shown) [Compound 992, 8-Caproyloxyacetyl-6-methylergoline]: the results for the 50% effective dose (ED50) with nidation (setting [2]) and in the data set on nidation (setting [3]) were roughly 1 mg/kg and roughly 0.5 mg/kg, respectively.
Consider `CN1CC(C(=O)COC(=O)c2ccccc2)C[C@@H]2c3cccc4[nH]cc(c34)C[C@H]21` (stereo partly shown) [Compound 1000, 8-Benzoyloxyacetyl-6-methylergoline], for which the median effective dose (ED50) was roughly 1 mg/kg with nidation (setting [2]) and roughly 0.5 mg/kg in the data set on nidation (setting [3]).
With `CN1CC(C(=O)COC(=O)C(C)(C)C)C[C@@H]2c3cccc4[nH]cc(c34)C[C@H]21` (stereo partly shown) [Compound 1011, 8-Pivaloyloxyacetyl-6-methylergoline], the figures for the 50% effective dose (ED50) in the data set with nidation (setting [2]) and in the data set with nidation (setting [3]) were roughly 1 mg/kg and roughly 0.5 mg/kg, respectively.
As to `CN1CC(C(=O)COC(=O)c2cccnc2)C[C@@H]2c3cccc4[nH]cc(c34)C[C@H]21` (stereo partly shown) [Compound 1012, 8-Nicotinoyloxyacetyl-6-methylergoline], the ED50 in the data set on nidation (setting [2]) and with nidation (setting [3]) was roughly 1 mg/kg in each case.
For the compound `COc1cccc(OC)c1C(=O)OCC(=O)C1C[C@@H]2c3cccc4[nH]cc(c34)C[C@H]2N(C)C1` (stereo partly shown) [Compound 1013, 8-(2',6'-dimethoxybenzoyloxyacetyl)-6-methylergoline], the ED50 was roughly 1 mg/kg in the data set with nidation (setting [2]) and roughly 0.5 mg/kg in the data set with nidation (setting [3]).
For the compound `CN1CCN(CC(=O)C2C[C@@H]3c4cccc5[nH]cc(c45)C[C@H]3N(C)C2)CC1` (stereo partly shown) [Compound 1014, 6-Methyl-8-(4'-methylpiperazino)acetylergoline], the 50% effective dose (ED50) in the data set with nidation (setting [2]) and with nidation (setting [3]) was roughly 1 mg/kg in each case.
